Results: patent US6340581B1, “Biological production of products from waste gases” (Bioengineering Resources, Inc., priority 1992, dated 2002)
Like-named read-outs stand apart in the source and are kept apart here.

What was measured:
[1] = Acetic acid distribution coefficient study: solvents for recovering acetic acid from the permeate; assay type: physicochemical
[2] = Distribution coefficients of mixed solvents; assay type: physicochemical; details: oleyl alcohol 10 cc plus Cyc or TBP
[3] = aqueous phase after contact with the solvent

Compound | Equilibrium Aqueous Acetic Acid Concentration [1, 3] | Acetic Acid Distribution Coefficients ([1]; solvent vs aqueous phase) | Distribution Coefficients [2] | Acetic Acid Distribution Coefficients [1] | Equilibrium Aqueous Acetic Acid Concentration [1]
CCCCCCCC/C=C\CCCCCCCCO [Oleyl alcohol] | 5.114 g/L | 0.28 | 0.17 |  | 
CCCCCCCCCC [Decane] | 5.968 g/L | 0.08 |  |  | 
O=C1CCCCC1 [Cyclohexanone] | 2.702 g/L | 1.66 |  |  | 
Dexyl alcohol | 3.890 g/L | 0.42 |  |  | 
CCCCCC [Hexane] |  |  |  | 0.0 | 6.559 g/L
CCCC(=O)OCC [Ethyl butyrate] | 4.665 g/L | 0.42 |  |  | 
ClC(Cl)Cl [Chloroform] |  |  |  | 0.09 | 5.128 g/L
CCCCOP(=O)(O)OCCCC [Dibutyl phosphate] |  |  |  | 0.18 | 4.615 g/L
CCCCCCCCCCCCOC(C)=O [Dodecyl acetate] | 5.787 g/L | 0.15 |  |  | 
CCCCCCCCCCCC [Dodecane] | 4.654 g/L | 0.13 |  |  | 

Second part, led by results:

Equilibrium Aqueous Acetic Acid Concentration [1, 3] | Acetic Acid Distribution Coefficients ([1]; solvent vs aqueous phase) | Distribution Coefficients [2] | Compound | Acetic Acid Distribution Coefficients [1] | Equilibrium Aqueous Acetic Acid Concentration [1]
3.785 g/L | 0.31 |  | CCCCCCCCN(CCCCCCCC)CCCCCCCC [Trioctylamine] |  | 
2.110 g/L | 1.26 |  | CC1CCCC(O)C1 (centres unmarked) [3-methylcyclohexanol] |  | 
4.528 g/L | 0.40 |  | CCCCCCCCCCCO [Undecyl alcohol] |  | 
3.308 g/L | 0.77 |  | CCCCC(CC)CO (centres unmarked) [2-ethyl-1-hexanol] |  | 
4.358 g/L | 0.45 |  | CCCCCCCCO [Octanol] |  | 
4.550 g/L | 0.41 |  | CCOC(C)=O [Ethyl acetate] |  | 
5.866 g/L | 1.13 |  | CCCCCCCCCCCCCCCC [Hexadecane] |  | 
